Reference: US12201622B2, “Continuous delivery of lenalidomide and other immunomodulatory agents” (Starton Therapeutics, Inc., priority 2019, dated 2025)
Entries after “also recorded” stand apart in the source; their conditions may differ.

Key:
[1] = tested on: H929 multiple myeloma tumor cells; experiment: Efficacy of lenalidomide continuous infusion in H929 myeloma xenograft model; format: in vivo, CB.17 SCID mouse
From the text: In this study, a composition comprising lenalidomide was continuously delivered via subcutaneous infusion or was delivered once a day via intraperitoneal injection to SCID mice wherein the mice were implanted with a H929 multiple myeloma xenograft.
(§1) Six groups of female CB.17 SCID mouse, each containing ten mice, were subcutaneously injected with 1×10^7 H929 multiple myeloma tumor cells in 50% Matrigel. After the tumor reached an average size of 100-150 mm^3, an iPrecio pump was surgically implanted into each of the mice. Dosing began twenty-four hours post pump implantation. Group 1, the control group, was treated with vehicle via intraperitoneal injection once a day. Group 2 was treated with lenalidomide via intraperitoneal injection once a day. Each of Groups 3-6 was treated lenalidomide via continuous subcutaneous infusion at different hourly rate. The dosing lasted 14 days followed by one day off the treatment and lasted for another 14 days. The iPrecio pump was replaced after 14 days. The formulation used in Groups 2-6 contains 20% PEG400 in water as the carrier. Blood was drawn at predetermined time points and analyzed
The table below lists the daily dose and schedule for each of the six groups.

[2] = Blood levels of lenalidomide in SCID mice after daily intraperitoneal dose; format: in vivo, SCID mouse; conditions: Group 2: 500 mcg ip once a day
Description: In the study described in Example 1, the SCID mice in Group 2 were given the standard of care treatment which is a daily intraperitoneal dose of 25 mg/kg (500 mcg for 20 gm mouse) administered once a day. […] For example, if the continuous blood level is greater than that observed at 16 hours but less than that observed at 10 hours in daily intraperitoneal dose of 500 mcg administered once a day, it is effective and non-toxic. The maintenance of continuous dose specific blood levels in terms of their time range are predicted to be safe and effective and result in activity in humans.
as §1
The multiple myeloma study in SCID mice provides pharmacokinetically modeled data to support three treatment paradigms. The standard of care treatment in the mouse model study is a daily intraperitoneal dose of 500 mcg administered once a day (see Group 2). […] The range of tolerable and effective blood levels ranged from the blood level at 10 hours to the blood level at 16 hours. Continuous blood levels of greater than those observed at 8 hours or 0.29 mcg/mL and lower than those observed at 18 hours or 0.013 mcg/mL were either toxic or ineffective, respectfully. The maintenance of continuous dose specific blood levels in terms of their time range are predicted to be safe and effective and result in activity in humans.

[3] = Body weight and hematologic toxicity (WBC, PLT, ANC) in xenografted SCID mice; format: in vivo, CB.17 SCID mouse; conditions: for ANC: normal range 0.77-2.5; for WBC: normal range 1.4-5.4; for PLT: normal range 733-1441
Description: as §1

[4] = Group 3: 144 μg/day (6 μg/hr) sc continuous, day 8
[5] = Group 4: 48 μg/day (2 μg/hr) sc continuous, day 8
[6] = Group 5: 24 μg/day (1 μg/hr) sc continuous, day 8
[7] = Group 6: 12 μg/day (.5 μg/hr) sc continuous, day 8

Nc1cccc2c1CN(C1CCC(=O)NC1=O)C2=O (stereo not shown) [lenalidomide, 3-(4-amino-1-3-dihydro-1-oxo-2H-isoindol-2yl)-2,6-piperidinedione]
survival (Kaplan-Meier) ([1]; Group 2: 500 μg/day ip qd): no mouse survived at day 52 | tumor volume ([1]; Group 2: 25 mg/kg (500 μg/day) ip qd x 14/1 day off/qd x 14, 25 mg/kg): failed to inhibit the growth of the tumor volume; also recorded: slowed progression but did not inhibit the growth of the tumor size | tumor volume ([1]; Group 3: 144 μg/day (6 μg/hr) continuous sc infusion, 14 days/1 day off/14 days): the only group having tumor volume reduced during the treatment schedule; also recorded: effectively reduced the tumor size in all animals treated at 6 mcg/hr | survival (Kaplan-Meier) ([1]; Group 3: 144 μg/day continuous sc infusion, day 1 to day 95): the only group having mice survived for 95 days | blood level trough [2]: 2 ng/mL | Cmax ([2]; female, CB.17 SCID, mouse, blood, 500 ug, at 0.08 hours, read-out: blood level Cmax): 2900 ng/mL | concentration at 8 h ([2]; female, CB.17 SCID, mouse, blood, 25 mg/kg, read-out: blood level at 8 hours): 290 ng/mL | concentration at 18 h ([2]; female, CB.17 SCID, mouse, blood, 25 mg/kg, read-out: blood level at 18 hours): 13 ng/mL | ANC ([3]; Group 2: 25 mg/kg ip qd, day 8): 1.2 10^3 cells/μL | WBC ([3]; Group 2: 25 mg/kg ip qd, day 8): 1.8 10^3 cells/μL | PLT ([3]; Group 2: 25 mg/kg ip qd, day 8): 850 10^3 cells/μL | ANC [3, 4]: 2.4 10^3 cells/μL | WBC [3, 4]: 2.8 10^3 cells/μL | PLT [3, 4]: 1360 10^3 cells/μL | ANC [3, 5]: 1.9 10^3 cells/μL | WBC [3, 5]: 2.4 10^3 cells/μL | PLT [3, 5]: 1345 10^3 cells/μL | ANC [3, 6]: 2.8 10^3 cells/μL | WBC [3, 6]: 3.3 10^3 cells/μL | PLT [3, 6]: 1410 10^3 cells/μL | ANC [3, 7]: 2.5 10^3 cells/μL | WBC [3, 7]: 3.2 10^3 cells/μL | PLT [3, 7]: 1535 10^3 cells/μL | body weight ([3]; continuous sc infusion (Group 3, 144 μg/day)): insignificant weight loss; also recorded: did not result in substantial loss of body weight | hematologic toxicity ([3]; continuous sc infusion, Groups 3-6 (12-144 μg/day), day 8): no substantial hematologic toxicity; also recorded: did not result in substantial loss of body weight or hematologic toxicity
